The record followed here is PMC12847965 (Nature Communications, 2025).

The assay addresses T1, E. coli GlpG (Escherichia coli, UniProt P09391).
T1 sequence (P09391 1-276): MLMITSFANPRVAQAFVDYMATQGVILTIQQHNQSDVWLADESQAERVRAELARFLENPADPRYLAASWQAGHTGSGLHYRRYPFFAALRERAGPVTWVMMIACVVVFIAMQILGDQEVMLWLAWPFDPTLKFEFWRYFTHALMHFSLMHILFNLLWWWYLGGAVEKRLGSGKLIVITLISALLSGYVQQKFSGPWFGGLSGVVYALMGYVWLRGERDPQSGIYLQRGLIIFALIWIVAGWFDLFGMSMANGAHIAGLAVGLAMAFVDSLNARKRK
Nature of the assay: FRET peptide cleavage assay. The class given is biochemical.

In turn, `Cc1ccc(S(=O)(=O)N[C@@H](Cc2ccccc2)C(=O)CCl)cc1` [tosyl phenylalanyl chloromethylketone] yielded an IC50 of 296 µM.

Usually IC50 stands for the concentration at which inhibition is half-maximal. Low values mean inhibition by little substance, high ones a need for much substance.
